# Test results taken from patent US9474790B2, “Stable, protracted GLP-1/glucagon receptor co-agonists for medical use” (Novo Nordisk A/S, priority 2013, dated 2016).
# Numbered stars: 1 amine (or outer) side, 2 acyl side, 3 side chain; on linkers, the order of the positions; unused ones are H or OH. Bridge positions count the residues as written; N and C are the ends. Square brackets hold non-standard residues; d marks the D form. Side chains are listed from the residue outwards. Peptide text beside a SMILES is read from it. I, II: the chains in the order shown. * marks the point of attachment. C18 diacid = O=C(O)CCCCCCCCCCCCCCCCC(=O)*; γGlu = O=C(O)[C@H](CCC(=O)[*:2])N[*:1]; Ac4c = NC1(C(=O)O)CCC1; AEEA = NCCOCCOCC(=O)O; Aib = CC(C)(N)C(=O)O
# Target: T1, human GLP-1 receptor (Homo sapiens, UniProt P43220)
# T1 construct: expressed in transfected cells; host or cells: BHK cells (parent BHKTS13), clone FCW467-12A/KZ10-1, with CRE luciferase
# T1 sequence (P43220 24-463): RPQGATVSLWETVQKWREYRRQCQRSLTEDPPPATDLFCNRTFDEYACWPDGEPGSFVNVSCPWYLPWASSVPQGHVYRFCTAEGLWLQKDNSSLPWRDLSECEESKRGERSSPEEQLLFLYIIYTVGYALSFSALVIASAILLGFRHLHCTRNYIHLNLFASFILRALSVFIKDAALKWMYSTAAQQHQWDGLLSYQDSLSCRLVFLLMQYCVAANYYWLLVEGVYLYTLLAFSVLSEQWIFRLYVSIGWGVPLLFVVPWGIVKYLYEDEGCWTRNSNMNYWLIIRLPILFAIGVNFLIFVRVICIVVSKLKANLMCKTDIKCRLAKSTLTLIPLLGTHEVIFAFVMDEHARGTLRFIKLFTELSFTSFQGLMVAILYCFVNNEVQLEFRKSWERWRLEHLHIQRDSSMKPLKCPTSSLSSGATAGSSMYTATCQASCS
# Assay: GLP-1 receptor binding, 125I-GLP-1 displacement SPA on isolated membranes
# Settings: displacement of 125I-GLP-1 from membranes; read-out: IC50 GLP-1R
# Summary of the method: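 SPA displacement of 125I-GLP-1(7-36)NH2 from membranes of BHK cells expressing human GLP-1 receptor, with WGA beads, in 50 mM HEPES, 5 mM EGTA, 5 mM MgCl2, 0.005% Tween 20, pH 7.4. Incubated 2 h at 30°C; IC50 by non-linear regression, run at ≤0.001% or 2.0% final serum albumin.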
row,Structure (SMILES),IC50
1,"CC(C)C[C@H](NC(=O)[C@H](Cc1ccc(O)cc1)NC(=O)[C@H](CCCCN)NC(=O)[C@H](CO)NC(=O)[C@H](CC(C)C)NC(=O)[C@H](CC(=O)O)NC(=O)[C@H](CO)NC(=O)[C@@H](NC(=O)[C@H](Cc1ccccc1)NC(=O)[C@@H](NC(=O)CNC(=O)[C@H](CCC(N)=O)NC(=O)C1(NC(=O)[C@@H](N)Cc2c[nH]cn2)CCC1)[C@@H](C)O)[C@@H](C)O)C(=O)N[C@@H](CCC(=O)O)C(=O)N[C@@H](CO)C(=O)N[C@@H](CCCCN)C(=O)N[C@@H](CCCNC(=N)N)C(=O)N[C@@H](C)C(=O)N[C@@H](CCCNC(=N)N)C(=O)N[C@@H](CCC(=O)O)C(=O)N[C@@H](Cc1ccccc1)C(=O)N[C@H](C(=O)N[C@@H](CCC(N)=O)C(=O)N[C@@H](Cc1c[nH]c2ccccc12)C(=O)N[C@@H](CC(C)C)C(=O)N[C@@H](CC(C)C)C(=O)N[C@@H](CCCCNC(=O)CNC(=O)[C@H](CO)NC(=O)[C@H](CCC(=O)O)NC(=O)CNC(=O)[C@H](CO)NC(=O)CC[C@H](NC(=O)CC[C@H](NC(=O)CCCCCCCCCCCCCCCCC(=O)O)C(=O)O)C(=O)O)C(=O)N[C@H](C(N)=O)[C@@H](C)O)C(C)C [Example 36, N^ε28-[2-[[(2S)-2-[[(2S)-4-carboxy-2-[[2-[[(2S)-2-[[(4S)-4-carboxy-4-[[(4S)-4-carboxy-4-(17-carboxyheptadecanoylamino)butanoyl]amino]butanoyl]amino]-3-hydroxypropanoyl]amino]acetyl]amino]butanoyl]amino]-3-hydroxypropanoyl]amino]acetyl]-[Acb2,Leu10,Glu15,Lys17, Arg20,Glu21,Leu27,Lys28]-Glucagon amide] (I: H-H[Ac4c]QGTFTSDLSKYLESKRAREFVQWLLKT-NH2 / II: {C18 diacid-γGlu-γGlu}-SGESG; amide I:28-II:C; N-terminus assumed)",0.2 nM
2,"CC(C)C[C@H](NC(=O)[C@H](Cc1ccc(O)cc1)NC(=O)[C@H](CCCCN)NC(=O)[C@H](CO)NC(=O)[C@H](CC(C)C)NC(=O)[C@H](CC(=O)O)NC(=O)[C@H](CO)NC(=O)[C@@H](NC(=O)[C@H](Cc1ccccc1)NC(=O)[C@@H](NC(=O)CNC(=O)[C@H](Cc1c[nH]cn1)NC(=O)C(C)(C)NC(=O)[C@@H](N)Cc1c[nH]cn1)[C@@H](C)O)[C@@H](C)O)C(=O)N[C@@H](CCC(=O)O)C(=O)N[C@@H](CO)C(=O)N[C@@H](CCCNC(=N)N)C(=O)N[C@@H](CCCNC(=N)N)C(=O)N[C@@H](C)C(=O)N[C@@H](CCCNC(=N)N)C(=O)N[C@@H](CC(=O)O)C(=O)N[C@@H](Cc1ccccc1)C(=O)N[C@H](C(=O)N[C@@H](CCC(N)=O)C(=O)N[C@@H](Cc1c[nH]c2ccccc12)C(=O)N[C@@H](CC(C)C)C(=O)N[C@@H](CC(C)C)C(=O)N[C@@H](CCCCNC(=O)CNC(=O)[C@H](CO)NC(=O)[C@H](CCC(=O)O)NC(=O)CNC(=O)[C@H](CO)NC(=O)CC[C@H](NC(=O)CC[C@H](NC(=O)CCCCCCCCCCCCCCCCC(=O)O)C(=O)O)C(=O)O)C(=O)N[C@H](C(N)=O)[C@@H](C)O)C(C)C [Example 37, N^ε28-[2-[[(2S)-2-[[(2S)-4-carboxy-2-[[2-[[(2S)-2-[[(4S)-4-carboxy-4-[[(4S)-4-carboxy-4-(17-carboxyheptadecanoylamino)butanoyl]amino]butanoyl]amino]-3-hydroxypropanoyl]amino]acetyl]amino]butanoyl]amino]-3-hydroxypropanoyl]amino]acetyl]-[Aib2,His3,Leu10,Glu15, Arg20,Leu27,Lys28]-Glucagon amide] (I: H-H[Aib]HGTFTSDLSKYLESRRARDFVQWLLKT-NH2 / II: {C18 diacid-γGlu-γGlu}-SGESG; amide I:28-II:C; N-terminus assumed)",0.2 nM
3,"CC(C)C[C@H](NC(=O)[C@H](Cc1ccc(O)cc1)NC(=O)[C@H](CCCCN)NC(=O)[C@H](CO)NC(=O)[C@H](CC(C)C)NC(=O)[C@H](CC(=O)O)NC(=O)[C@H](CO)NC(=O)[C@@H](NC(=O)[C@H](Cc1ccccc1)NC(=O)[C@@H](NC(=O)CNC(=O)[C@H](CCC(N)=O)NC(=O)C(C)(C)NC(=O)[C@@H](N)Cc1c[nH]cn1)[C@@H](C)O)[C@@H](C)O)C(=O)N[C@@H](CC(=O)O)C(=O)N[C@@H](C)C(=O)N[C@@H](CCCNC(=N)N)C(=O)N[C@@H](CCCNC(=N)N)C(=O)N[C@@H](C)C(=O)N[C@@H](CCCNC(=N)N)C(=O)N[C@@H](CCC(=O)O)C(=O)N[C@@H](Cc1ccccc1)C(=O)N[C@H](C(=O)N[C@@H](CCC(N)=O)C(=O)N[C@@H](Cc1c[nH]c2ccccc12)C(=O)N[C@@H](CC(C)C)C(=O)N[C@@H](CC(C)C)C(=O)N[C@@H](CC(N)=O)C(=O)N[C@@H](CCCCNC(=O)CC[C@H](NC(=O)CC[C@H](NC(=O)COCCOCCNC(=O)CC[C@H](NC(=O)CCCCCCCCCCCCCCCCC(=O)O)C(=O)O)C(=O)O)C(=O)O)C(N)=O)C(C)C [Example 39, N^ε29-[(4S)-4-carboxy-4-[[(4S)-4-carboxy-4-[[2-[2-[2-[[(4S)-4-carboxy-4-(17-carboxyheptadecanoylamino)butanoyl]amino]ethoxy]ethoxy]acetyl]amino]butanoyl]amino]butanoyl]-[Aib2,Leu10,Ala16,Arg20,Glu21,Leu27,Lys29]-Glucagon amide] (H-H[Aib]QGTFTSDLSKYLDARRAREFVQWLLNK([γGlu-γGlu-AEEA-γGlu-C18 diacid])-NH2; N-terminus assumed)",0.3 nM
4,"CC(C)C[C@H](NC(=O)[C@H](CC(C)C)NC(=O)[C@H](Cc1c[nH]c2ccccc12)NC(=O)[C@H](CCC(N)=O)NC(=O)[C@@H](NC(=O)[C@H](Cc1ccccc1)NC(=O)[C@H](CCC(=O)O)NC(=O)[C@H](CCCNC(=N)N)NC(=O)[C@H](C)NC(=O)[C@H](CCCNC(=N)N)NC(=O)[C@H](CCCNC(=N)N)NC(=O)[C@H](CO)NC(=O)[C@H](CCC(=O)O)NC(=O)[C@H](CC(C)C)NC(=O)[C@H](Cc1ccc(O)cc1)NC(=O)[C@H](CCCCN)NC(=O)[C@H](CO)NC(=O)[C@H](CC(C)C)NC(=O)[C@H](CC(=O)O)NC(=O)[C@H](CO)NC(=O)[C@@H](NC(=O)[C@H](Cc1ccccc1)NC(=O)[C@@H](NC(=O)CNC(=O)[C@H](CCC(N)=O)NC(=O)C(C)(C)NC(=O)[C@@H](N)Cc1c[nH]cn1)[C@@H](C)O)[C@@H](C)O)C(C)C)C(=O)N[C@@H](CC(N)=O)C(=O)N[C@@H](CCCCNC(=O)CC[C@H](NC(=O)CC[C@H](NC(=O)COCCOCCNC(=O)CC[C@H](NC(=O)CCCCCCCCCCCCCCCCC(=O)O)C(=O)O)C(=O)O)C(=O)O)C(N)=O [Example 40, N^ε29-[(4S)-4-carboxy-4-[[(4S)-4-carboxy-4-[[2-[2-[2-[[(4S)-4-carboxy-4-(17-carboxyheptadecanoylamino)butanoyl]amino]ethoxy]ethoxy]acetyl]amino]butanoyl]amino]butanoyl]-[Aib2,Leu10,Glu15,Arg20,Glu21,Leu27,Lys29]-Glucagon amide] (H-H[Aib]QGTFTSDLSKYLESRRAREFVQWLLNK([γGlu-γGlu-AEEA-γGlu-C18 diacid])-NH2; N-terminus assumed)",0.4 nM
5,"CC(C)C[C@H](NC(=O)[C@H](Cc1ccc(O)cc1)NC(=O)[C@H](CCCCN)NC(=O)[C@H](CO)NC(=O)[C@H](CC(C)C)NC(=O)[C@H](CC(=O)O)NC(=O)[C@H](CO)NC(=O)[C@@H](NC(=O)[C@H](Cc1ccccc1)NC(=O)[C@@H](NC(=O)CNC(=O)[C@H](CCC(N)=O)NC(=O)C(C)(C)NC(=O)[C@@H](N)Cc1c[nH]cn1)[C@@H](C)O)[C@@H](C)O)C(=O)N[C@@H](CCC(=O)O)C(=O)N[C@@H](CO)C(=O)N[C@@H](CCCNC(=N)N)C(=O)N[C@@H](CCCNC(=N)N)C(=O)N[C@@H](C)C(=O)N[C@@H](CCCNC(=N)N)C(=O)N[C@@H](CCC(=O)O)C(=O)N[C@@H](Cc1ccccc1)C(=O)N[C@H](C(=O)N[C@@H](CCC(N)=O)C(=O)N[C@@H](Cc1c[nH]c2ccccc12)C(=O)N[C@@H](CC(C)C)C(=O)N[C@@H](CC(C)C)C(=O)N[C@@H](CCCCNC(=O)CC[C@H](NC(=O)CC[C@H](NC(=O)CC[C@H](NC(=O)CCCCCCCCCCCCCCCCC(=O)O)C(=O)O)C(=O)O)C(=O)O)C(=O)N[C@H](C(N)=O)[C@@H](C)O)C(C)C [Example 41, N^ε28-[(4S)-4-carboxy-4-[[(4S)-4-carboxy-4-[[(4S)-4-carboxy-4-(17-carboxyheptadecanoylamino)butanoyl]amino]butanoyl]amino]butanoyl]-[Aib2,Leu10,Glu15, Arg20,Glu21,Leu27,Lys28]-Glucagon amide] (H-H[Aib]QGTFTSDLSKYLESRRAREFVQWLLK([γGlu-γGlu-γGlu-C18 diacid])T-NH2; N-terminus assumed)",0.3 nM
6,"CC(C)C[C@H](NC(=O)[C@H](Cc1ccc(O)cc1)NC(=O)[C@H](CCCCN)NC(=O)[C@H](CO)NC(=O)[C@H](CC(C)C)NC(=O)[C@H](CC(=O)O)NC(=O)[C@H](CO)NC(=O)[C@@H](NC(=O)[C@H](Cc1ccccc1)NC(=O)[C@@H](NC(=O)CNC(=O)[C@H](CCC(N)=O)NC(=O)C(C)(C)NC(=O)[C@@H](N)Cc1c[nH]cn1)[C@@H](C)O)[C@@H](C)O)C(=O)N[C@@H](CCC(=O)O)C(=O)N[C@@H](CO)C(=O)N[C@@H](CCCNC(=N)N)C(=O)N[C@@H](CCCNC(=N)N)C(=O)N[C@@H](C)C(=O)N[C@@H](CCCNC(=N)N)C(=O)N[C@@H](CCC(=O)O)C(=O)N[C@@H](Cc1ccccc1)C(=O)N[C@H](C(=O)N[C@@H](CCC(N)=O)C(=O)N[C@@H](Cc1c[nH]c2ccccc12)C(=O)N[C@@H](CC(C)C)C(=O)N[C@@H](CC(C)C)C(=O)N[C@@H](CCCCNC(=O)COCCOCCNC(=O)COCCOCCNC(=O)CC[C@H](NC(=O)CC[C@H](NC(=O)CC[C@H](NC(=O)CCCCCCCCCCCCCCCCC(=O)O)C(=O)O)C(=O)O)C(=O)O)C(=O)N[C@H](C(N)=O)[C@@H](C)O)C(C)C [Example 42, N^ε28-[2-[2-[2-[[2-[2-[2-[[(4S)-4-carboxy-4-[[(4S)-4-carboxy-4-[[(4S)-4-carboxy-4-(17-carboxyheptadecanoylamino)butanoyl]amino]butanoyl]amino]butanoyl]amino]ethoxy]ethoxy]acetyl]amino]ethoxy]ethoxy]acetyl]-[Aib2,Leu10,Glu15,Arg20,Glu21,Leu27,Lys28]-Glucagon amide] (H-H[Aib]QGTFTSDLSKYLESRRAREFVQWLLK([AEEA-AEEA-γGlu-γGlu-γGlu-C18 diacid])T-NH2; N-terminus assumed)",0.3 nM
